Values joined by “and” are separate entries in the source; they are usually repeats but may differ in a detail not shown here. Identical values can stand only once. Toxic doses and inconclusive results are not listed. Cut-off read from the data, not from the text of the source: active = T/C of 150% or more; inactive = T/C below 125%.
Tested on: L1210 leukemia ip in BDF1 mice, survival T/C
Test: NCI In Vivo Anticancer Drug Screen. Data for tumor model L1210 Leukemia (intraperitoneal) in B6D2F1 (BDF1) mice
Settings: endpoint: mean survival time, higher = longer survival
Method in brief: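 Read-out is survival time, reported as the treated-group measurement over the vehicle-control measurement.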

[1] = dose: 100.0 mg/kg/injection, schedule: Q01DX009 (ip), vehicle: Klucel (hydroxypropylcellulose) (HPC)
[2] = dose: 100.0 mg/kg/injection, schedule: Q04DX003 (ip), vehicle: Klucel (hydroxypropylcellulose) (HPC)
[3] = dose: 200.0 mg/kg/injection, schedule: Q04DX003 (ip), vehicle: Klucel (hydroxypropylcellulose) (HPC)
[4] = dose: 400.0 mg/kg/injection, schedule: Q04DX003 (ip), vehicle: Klucel (hydroxypropylcellulose) (HPC)
[5] = dose: 100.0 mg/kg/injection, schedule: Q04DX002 (ip), vehicle: Klucel (hydroxypropylcellulose) (HPC)
[6] = dose: 100.0 mg/kg/injection, schedule: Q04DX003 (ip), vehicle: saline
[7] = dose: 100.0 mg/kg/injection, schedule: Q01DX001 (ip), vehicle: saline
[8] = dose: 200.0 mg/kg/injection, schedule: Q01DX001 (ip), vehicle: saline
[9] = dose: 100.0 mg/kg/injection, schedule: Q01DX009 (ip), vehicle: saline with Tween-80
[10] = dose: 200.0 mg/kg/injection, schedule: Q01DX009 (ip), vehicle: saline with Tween-80
[11] = dose: 400.0 mg/kg/injection, schedule: Q01DX009 (ip), vehicle: saline with Tween-80
[12] = dose: 50.0 mg/kg/injection, schedule: Q01DX009 (ip), vehicle: saline with Tween-80
[13] = dose: 200.0 mg/kg/injection, schedule: Q04DX002 (ip), vehicle: Klucel (hydroxypropylcellulose) (HPC)
[14] = dose: 400.0 mg/kg/injection, schedule: Q04DX002 (ip), vehicle: Klucel (hydroxypropylcellulose) (HPC)

Measured: T/C

O=C(Nc1ccccc1)Nc1ccc(Cl)c(Cl)c1
inactive: dose: 100.0 mg/kg/injection, schedule: Q01DX001 (ip), vehicle: saline with Tween-80 95 % of control | [1] 101 % of control | [2] 107 % of control | dose: 200.0 mg/kg/injection, schedule: Q01DX001 (ip), vehicle: saline with Tween-80 97 % of control | dose: 200.0 mg/kg/injection, schedule: Q01DX009 (ip), vehicle: Klucel (hydroxypropylcellulose) (HPC) 94 % of control | [3] 89 % of control | dose: 400.0 mg/kg/injection, schedule: Q01DX001 (ip), vehicle: saline with Tween-80 90 % of control | dose: 400.0 mg/kg/injection, schedule: Q01DX009 (ip), vehicle: Klucel (hydroxypropylcellulose) (HPC) 95 % of control | [4] 86 % of control

N#CCOc1ccc(Cl)cc1
inactive: dose: 6.25 mg/kg/injection, schedule: Q01DX009 (ip), vehicle: Klucel (hydroxypropylcellulose) (HPC) 96 % of control | dose: 12.5 mg/kg/injection, schedule: Q01DX009 (ip), vehicle: Klucel (hydroxypropylcellulose) (HPC) 97 % of control | dose: 25.0 mg/kg/injection, schedule: Q01DX009 (ip), vehicle: Klucel (hydroxypropylcellulose) (HPC) 95 % of control and 108 % of control | [5] 87 % of control

O=C(/C=C\C(Cl)(Cl)Cl)c1ccccc1
inactive: dose: 100.0 mg/kg/injection, schedule: Q01DX001 (ip), vehicle: Klucel (hydroxypropylcellulose) (HPC) 93 % of control | dose: 200.0 mg/kg/injection, schedule: Q01DX001 (ip), vehicle: Klucel (hydroxypropylcellulose) (HPC) 93 % of control | dose: 400.0 mg/kg/injection, schedule: Q01DX001 (ip), vehicle: Klucel (hydroxypropylcellulose) (HPC) 97 % of control

CCOP(OCC)SSCn1nc2ccc3ccccc3n2c1=O
inactive: dose: 50.0 mg/kg/injection, schedule: Q01DX009 (ip), vehicle: Klucel (hydroxypropylcellulose) (HPC) 101 % of control

O=C(c1ccccc1)c1c(-c2ccccc2)c(-c2ccccc2)n(-c2ccccc2)c1C(=O)c1ccccc1
inactive: dose: 22.2 mg/kg/injection, schedule: Q01DX001 (ip), vehicle: carboxymethylcellulose (CMC) 94 % of control and 96 % of control | dose: 33.35 mg/kg/injection, schedule: Q01DX001 (ip), vehicle: carboxymethylcellulose (CMC) 91 % of control | dose: 50.0 mg/kg/injection, schedule: Q01DX001 (ip), vehicle: carboxymethylcellulose (CMC) 94 % of control | dose: 75.0 mg/kg/injection, schedule: Q01DX001 (ip), vehicle: carboxymethylcellulose (CMC) 94 % of control

CCOCCOCCOC(C)Oc1ccc(Cl)cc1C (stereo not drawn)
inactive: dose: 100.0 mg/kg/injection, schedule: Q04DX002 (ip), vehicle: saline with Tween-80 123 % of control | dose: 200.0 mg/kg/injection, schedule: Q04DX002 (ip), vehicle: saline with Tween-80 100 % of control | dose: 400.0 mg/kg/injection, schedule: Q04DX002 (ip), vehicle: saline with Tween-80 103 % of control

CCOC(=O)c1cc(OC(C)=O)c2c(ccc3cc(OC)ccc32)c1CC
inactive: dose: 100.0 mg/kg/injection, schedule: Q01DX009 (ip), vehicle: saline 91 % of control | [6] 93 % of control | dose: 200.0 mg/kg/injection, schedule: Q04DX003 (ip), vehicle: saline 96 % of control | dose: 400.0 mg/kg/injection, schedule: Q01DX009 (ip), vehicle: saline 91 % of control | dose: 400.0 mg/kg/injection, schedule: Q04DX003 (ip), vehicle: saline 91 % of control

Nc1ncc(CNc2ccc(C(=O)O)cc2)c(N)n1
inactive: [7] 103 % of control | [8] 103 % of control

NCC(OCC(=O)O)C(Cl)(Cl)Cl (stereo not drawn)
inactive: [9] 93 % of control | [10] 95 % of control | [11] 90 % of control

O=C(O)C(Br)C(Br)C(=O)O.[Ag] (stereo not drawn)
inactive: dose: 9.38 mg/kg/injection, schedule: Q01DX001 (ip), vehicle: other 94 % of control | dose: 18.75 mg/kg/injection, schedule: Q01DX001 (ip), vehicle: other 94 % of control

Cc1cn(C2CC(OS(C)(=O)=O)C(COC(c3ccccc3)(c3ccccc3)c3ccccc3)O2)c(=O)[nH]c1=O (stereo not drawn)
inactive: dose: 100.0 mg/kg/injection, schedule: Q01DX005 (ip), vehicle: saline 104 % of control | dose: 200.0 mg/kg/injection, schedule: Q01DX005 (ip), vehicle: saline 96 % of control

CCCCCCCCCCCCNC(=O)C[n+]1ccc(C(N)=O)cc1
inactive: [6] 94 % of control

CCOC(=O)CC1c2nc3ccccc3cc2CN1C(=O)OCC (stereo not drawn)
inactive: [2] 100 % of control | [3] 102 % of control | [4] 103 % of control

CCC(C)Nc1ccc(NC(=S)Nc2ccc(NC(C)CC)cc2)cc1 (stereo not drawn)
inactive: dose: 100.0 mg/kg/injection, schedule: Q04DX002 (ip), vehicle: other 89 % of control | dose: 200.0 mg/kg/injection, schedule: Q04DX002 (ip), vehicle: other 86 % of control | dose: 400.0 mg/kg/injection, schedule: Q04DX002 (ip), vehicle: other 86 % of control

CCN(CC)Cc1cc(Nc2cc(C)nc(Nc3ccc(Cl)c(Cl)c3)n2)ccc1OC
inactive: dose: 12.5 mg/kg/injection, schedule: Q01DX009 (ip), vehicle: saline with Tween-80 98 % of control | dose: 12.5 mg/kg/injection, schedule: Q04DX003 (ip), vehicle: saline with Tween-80 98 % of control | dose: 25.0 mg/kg/injection, schedule: Q01DX009 (ip), vehicle: saline with Tween-80 105 % of control | dose: 25.0 mg/kg/injection, schedule: Q04DX003 (ip), vehicle: saline with Tween-80 100 % of control | [12] 110 % of control | dose: 50.0 mg/kg/injection, schedule: Q04DX003 (ip), vehicle: saline with Tween-80 101 % of control

O=C(C[n+]1cc2ccccc2c2ccccc21)c1ccccc1
inactive: [1] 95 % of control

O=C1CCCC/C1=C1/C(=O)Nc2ccccc21
inactive: [12] 104 % of control | [9] 118 % of control | [10] 110 % of control

CCCNC(=O)Nc1ccc(C)c(Cl)c1
inactive: [9] 100 % of control | dose: 100.0 mg/kg/injection, schedule: Q04DX003 (ip), vehicle: saline with Tween-80 108 % of control | [10] 96 % of control | dose: 200.0 mg/kg/injection, schedule: Q04DX003 (ip), vehicle: saline with Tween-80 101 % of control | [11] 100 % of control | dose: 400.0 mg/kg/injection, schedule: Q04DX003 (ip), vehicle: saline with Tween-80 95 % of control

Cc1ccc(S(=O)(=O)N(CCCc2c(C)nc(N)[nH]c2=O)Cc2ccc(N)cc2)cc1
inactive: [5] 91 % of control | [13] 88 % of control | [14] 112 % of control

CC(=O)c1ccccc1C(C)c1ccc(C)c2ccccc12 (stereo not drawn)
inactive: [5] 120 % of control | [13] 97 % of control | [14] 104 % of control

CCC(C=NCCBr)(CCC(=O)OC)CCC(=O)OC
inactive: dose: 100.0 mg/kg/injection, schedule: Q04DX002 (ip), vehicle: saline 102 % of control | dose: 200.0 mg/kg/injection, schedule: Q04DX002 (ip), vehicle: saline 102 % of control | dose: 400.0 mg/kg/injection, schedule: Q04DX002 (ip), vehicle: saline 112 % of control

CCOC1OC(CO)C(O)C(O)C1O (stereo not drawn)
inactive: [7] 102 % of control | [8] 98 % of control | dose: 400.0 mg/kg/injection, schedule: Q01DX001 (ip), vehicle: saline 109 % of control

— PubChem BioAssay AID248 (DTP/NCI, 2004)
